These results are taken from patent US20260151375A1, “CDK2 INHIBITORS AND METHODS OF USING THE SAME” (Cedilla Therapeutics, Inc., priority 2022, published 2026).

SMILES strings stand for the structures.

The target in one assay is T1, CDK2/Cyclin E1 (Homo sapiens, UniProt P24941).
T1 construct: purchased 14-475
Kind of assay: ADPGLO (CDK2/E1-37 C), ADP-Glo Luminescent Kinase Assay. It is filed as biochemical. Particulars: 0.18 nM CDK2/Cyclin E1, 100 μM ATP, Histone H1, 37° C. The procedure: Inhibition of CDK2/Cyclin E1 activity by the presence of small molecules was evaluated using ADP-Glo Luminescent Kinase Assay (Promega). Activated CDK2/Cyclin E1 was incubated with its substrate Histone H1 (SignalChem H10-54N) in the kinase reaction buffer (100 μM ATP, 50 mM HEPES pH 7.5, 10 mM MgCl2, 1 mM EDTA, 2 mM DTT, 0.01% Brij35, 0.5 mg/mL BSA). Luminescence was recorded with an Envision plate reader (PerkinElmer).
Dose titrations of inhibitors in 100% DMSO were combined with 0.36 nM CDK2/Cyclin E1 in reaction buffer. The mixtures were incubated for 60 minutes at 37° C. before the addition of ATP and Histone H1 substrate to initiate the kinase reaction. The final conditions were 0.18 nM CDK2/Cyclin E1, 100 μM ATP, and 1.5 μM Histone H1. The reactions were incubated at 37° C. for 90 minutes before being stopped with the addition of ADP-Glo reagent. This mixture was incubated at room temperature for 60 minutes before Kinase Detection Solution is added to generate luminescence. The stopped reactions were analyzed on an Envision plate reader. The conversion ratios were normalized to yield % activity, plotted against compound concentration, and fit to a four-parameter equation to determine the IC50 for each compound.
(In ADP-Glo the light output rises with the ADP produced.)

In the next assay the test system is Kuramochi cells. Description: IncuCyte Kuramochi Assay (cell proliferation). It is filed as cell-based. Particulars: 72 h, Kuramochi cells labeled with mApple-H2B, cell count, read-out: IncuCyte - Kuramochi RB-WT: IC50. An outline of the steps:
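GI50 came from dose-response fits of cell-count fold change between 0 and 72 h, normalized to DMSO controls. Counts were fluorescent nuclei from live-cell images over a 10-point, ½ log series starting at 20 μM.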

With `CC(c1nc(C2CN(C(=O)c3cnn(Cc4ccc(-c5nnn[nH]5)cc4)c3)CC23CN(C(=O)[C@H]2CC2(C)C)C3)no1)n1ccc(C2CCCC2)n1` (stereo partly drawn) [I-121, (1-(4-(1H-tetrazol-5-yl)benzyl)-1H-pyrazol-4-yl)(8-(5-(1-(3-cyclopentyl-1H-pyrazol-1-yl)ethyl)-1,2,4-oxadiazol-3-yl)-2-((S)-2,2-dimethylcyclopropane-1-carbonyl)-2,6-diazaspiro[3.4]octan-6-yl)methanone], the IC50 at CDK2/Cyclin E1 is 0.5 to 5 µM; in the assay with Kuramochi cells, above 10 µM.

In the case of `CC(c1nc(C2CN(C(=O)c3cnn(Cc4ccc(C(=O)O)c(O)c4)c3)CC23CN(C(=O)[C@H]2CC2(C)C)C3)no1)n1ccc(C2CCCC2)n1` (stereo partly drawn) [I-122, 4-((4-(8-(5-(1-(3-cyclopentyl-1H-pyrazol-1-yl)ethyl)-1,2,4-oxadiazol-3-yl)-2-((S)-2,2-dimethylcyclopropane-1-carbonyl)-2,6-diazaspiro[3.4]octane-6-carbonyl)-1H-pyrazol-1-yl)methyl)-2-hydroxybenzoic acid], the IC50 at CDK2/Cyclin E1 was 5 to 10 µM; with Kuramochi cells it was above 10 µM.

As for `CC(c1nc(C2CN(C(=O)c3cnn(Cc4ccccc4C(=O)O)c3)CC23CN(C(=O)[C@H]2CC2(C)C)C3)no1)n1ccc(C2CCCC2)n1` (stereo partly drawn) [I-123], the IC50 against CDK2/Cyclin E1 was at most 0.5 µM; with Kuramochi cells it was above 10 µM.

As to `CC(c1nc(C2CN(C(=O)c3cnn(Cc4ccc(OC(C)(C)C(=O)O)cc4)c3)CC23CN(C(=O)[C@H]2CC2(C)C)C3)no1)n1ccc(C2CCCC2)n1` (stereo partly drawn) [I-124], the 50% inhibitory concentration (IC50) at CDK2/Cyclin E1 was 0.5 to 5 µM; in the assay on Kuramochi cells, above 10 µM.

Take `CC(c1nc(C2CN(C(=O)c3cnn(Cc4ccc(C#N)cc4)c3)CC23CN(C(=O)C2(C(F)(F)F)CC2)C3)no1)n1ccc(C(F)(F)F)n1` (stereo not drawn) [I-207]: the IC50 against CDK2/Cyclin E1 and in the assay on Kuramochi cells was above 10 µM throughout.

On to `C=CC(=O)N(C)c1cccc(Cc2ccc(Cn3cc(C(=O)N4CC(c5nnc(C(F)(F)c6ccc(Cl)c(Cl)c6)o5)C5(C4)CN(C(=O)C4(C(F)(F)F)CC4)C5)cn3)cc2)c1` (stereo not drawn) [I-208], for which the IC50 against CDK2/Cyclin E1 and in the assay with Kuramochi cells was above 10 µM throughout.

On to `O=C(c1cnc(O)cn1)N1CC(c2nnc(C(C(=O)N3CCC(c4nccs4)CC3)c3ccc(C4CCOCC4)cc3)o2)C2(C1)CN(C(=O)C1(C(F)(F)F)CC1)C2` (stereo not drawn) [I-209], for which the IC50 is above 10 µM on CDK2/Cyclin E1 and at most 0.5 µM with Kuramochi cells.

On to `CC(c1nc(C2CN(C(=O)c3cnn(Cc4ccc(C#N)cc4)c3)CC23CN(C(=O)C2(C(F)(F)F)CC2)C3)no1)n1ccc(C2CCC(F)(F)CC2)n1` (stereo not drawn) [I-210], for which the IC50 against CDK2/Cyclin E1 is 0.5 to 5 µM; with Kuramochi cells it was at most 0.5 µM.

Regarding `O=C(c1cnn(Cc2ccc(C(F)(F)F)cc2)c1)N1CC(c2noc(N(Cc3ccc(Cl)c(Cl)c3)CC3CCOCC3)n2)C2(C1)CN(C(=O)C1(C(F)(F)F)CC1)C2` (stereo not drawn) [I-213, (8-(5-((3,4-dichlorobenzyl)((tetrahydro-2H-pyran-4-yl)methyl)amino)-1,2,4-oxadiazol-3-yl)-2-(1-(trifluoromethyl)cyclopropane-1-carbonyl)-2,6-diazaspiro[3.4]octan-6-yl)(1-(4-(trifluoromethyl)benzyl)-1H-pyrazol-4-yl)methanone], the IC50 at CDK2/Cyclin E1 is above 10 µM; in the assay with Kuramochi cells, 5 to 10 µM.

On to `CC(c1nc(C2CN(C(=O)c3cnn(Cc4ccc(C#N)cc4C(=O)O)c3)CC23CN(C(=O)C2(C(F)(F)F)CC2)C3)no1)n1ccc(C2(C(F)(F)F)CC2)n1` (stereo not drawn) [I-214], for which the IC50 at CDK2/Cyclin E1 was 0.5 to 5 µM; in the assay on Kuramochi cells it was above 10 µM.

Regarding `COC(=O)c1cc(C#N)ccc1Cn1cc(C(=O)N2CC(c3noc(C(C)n4ccc(C5(C(F)(F)F)CC5)n4)n3)C3(C2)CN(C(=O)C2(C(F)(F)F)CC2)C3)cn1` (stereo not drawn) [I-215], the IC50 against CDK2/Cyclin E1 lay within 0.5 to 5 µM; in the assay with Kuramochi cells, 5 to 10 µM.

As for `O=C(c1cnn(Cc2ccc(C(F)(F)F)cc2)c1)N1CC(c2nnc(C(C(=O)N3CCC(c4nccs4)CC3)c3ccc(C4CCOCC4)cc3)o2)C2(C1)CN(C(=O)C1(C(F)(F)F)CC1)C2` (stereo not drawn) [I-216, 2-(4-(tetrahydro-2H-pyran-4-yl)phenyl)-1-(4-(thiazol-2-yl)piperidin-1-yl)-2-(5-(6-(1-(4-(trifluoromethyl)benzyl)-1H-pyrazole-4-carbonyl)-2-(1-(trifluoromethyl)cyclopropane-1-carbonyl)-2,6-diazaspiro[3.4]octan-8-yl)-1,3,4-oxadiazol-2-yl)ethan-1-one], the IC50 is at most 0.5 µM at CDK2/Cyclin E1 and 0.5 to 5 µM in the assay with Kuramochi cells.

Consider `CC(c1nc(C2CN(C(=O)c3cnn(Cc4ccc(C(F)(F)F)cc4)c3)CC23CN(C(=O)C2(C(F)(F)F)CC2)C3)no1)n1ccc(C23CCC(CC2)OC3)n1` (stereo not drawn) [I-217, (8-(5-(1-(3-(2-oxabicyclo[2.2.2]octan-4-yl)-1H-pyrazol-1-yl)ethyl)-1,2,4-oxadiazol-3-yl)-2-(1-(trifluoromethyl)cyclopropane-1-carbonyl)-2,6-diazaspiro[3.4]octan-6-yl)(1-(4-(trifluoromethyl)benzyl)-1H-pyrazol-4-yl)methanone], for which the IC50 lay in the range of 0.5 to 5 µM on CDK2/Cyclin E1 and 5 to 10 µM in the assay with Kuramochi cells.

As to `CC(c1nc(C2CN(C(=O)c3cnn(Cc4ccc(C(F)(F)F)cc4C(=O)O)c3)CC23CN(C(=O)C2(C(F)(F)F)CC2)C3)no1)n1ccc(C2(C(F)(F)F)CC2)n1` (stereo not drawn) [I-218, 5-(trifluoromethyl)-2-((4-(2-(1-(trifluoromethyl)cyclopropane-1-carbonyl)-8-(5-(1-(3-(1-(trifluoromethyl)cyclopropyl)-1H-pyrazol-1-yl)ethyl)-1,2,4-oxadiazol-3-yl)-2,6-diazaspiro[3.4]octane-6-carbonyl)-1H-pyrazol-1-yl)methyl)benzoic acid], the IC50 against CDK2/Cyclin E1 and in the assay with Kuramochi cells was above 10 µM each time.

In the case of `COC(=O)c1cc(C(F)(F)F)ccc1Cn1cc(C(=O)N2CC(c3noc(C(C)n4ccc(C5(C(F)(F)F)CC5)n4)n3)C3(C2)CN(C(=O)C2(C(F)(F)F)CC2)C3)cn1` (stereo not drawn) [I-219, methyl 5-(trifluoromethyl)-2-((4-(2-(1-(trifluoromethyl)cyclopropane-1-carbonyl)-8-(5-(1-(3-(1-(trifluoromethyl)cyclopropyl)-1H-pyrazol-1-yl)ethyl)-1,2,4-oxadiazol-3-yl)-2,6-diazaspiro[3.4]octane-6-carbonyl)-1H-pyrazol-1-yl)methyl)benzoate], the IC50 on CDK2/Cyclin E1 and with Kuramochi cells was above 10 µM throughout.

For `CC(c1nc(C2CN(C(=O)c3cnn(Cc4ccccc4C(=O)O)c3)CC23CN(C(=O)C2(C(F)(F)F)CC2)C3)no1)n1ccc(C2(C(F)(F)F)CC2)n1` (stereo not drawn) [I-220, 2-((4-(2-(1-(trifluoromethyl)cyclopropane-1-carbonyl)-8-(5-(1-(3-(1-(trifluoromethyl)cyclopropyl)-1H-pyrazol-1-yl)ethyl)-1,2,4-oxadiazol-3-yl)-2,6-diazaspiro[3.4]octane-6-carbonyl)-1H-pyrazol-1-yl)methyl)benzoic acid], the IC50 on CDK2/Cyclin E1 was 0.5 to 5 µM; in the assay on Kuramochi cells, above 10 µM.

For the compound `CC1(C)C[C@@H]1C(=O)N1CC2(CN(C(=O)c3cncs3)CC2c2nc3ccc(Oc4ccccc4-c4cncs4)cc3o2)C1` (stereo partly drawn) [I-221, (2-((S)-2,2-dimethylcyclopropane-1-carbonyl)-8-(6-(2-(thiazol-5-yl)phenoxy)benzo[d]oxazol-2-yl)-2,6-diazaspiro[3.4]octan-6-yl)(thiazol-5-yl)methanone], the IC50 lay within 0.5 to 5 µM against CDK2/Cyclin E1 and 5 to 10 µM with Kuramochi cells.

As to `COC(=O)c1ccccc1Cn1cc(C(=O)N2CC(c3noc(C(C)n4ccc(C5(C(F)(F)F)CC5)n4)n3)C3(C2)CN(C(=O)C2(C(F)(F)F)CC2)C3)cn1` (stereo not drawn) [I-222], the IC50 at CDK2/Cyclin E1 and in the assay on Kuramochi cells was above 10 µM in each case.

Take `CC(c1nc(C2CN(C(=O)c3cnn(Cc4ccc(C(F)(F)F)cc4)c3)CC23CN(C(=O)C2(C(F)(F)F)CC2)C3)no1)n1ccc(C2(C(F)(F)F)CC2)n1` (stereo not drawn) [I-223, (1-(4-(trifluoromethyl)benzyl)-1H-pyrazol-4-yl)(2-(1-(trifluoromethyl)cyclopropane-1-carbonyl)-8-(5-(1-(3-(1-(trifluoromethyl)cyclopropyl)-1H-pyrazol-1-yl)ethyl)-1,2,4-oxadiazol-3-yl)-2,6-diazaspiro[3.4]octan-6-yl)methanone]: the IC50 is above 10 µM against CDK2/Cyclin E1 and 5 to 10 µM in the assay with Kuramochi cells.

For `Cc1nc(C(=O)N2C[C@H](c3noc(C(C)n4ccc(C5CCOCC5)n4)n3)C3(C2)CN(C(=O)C2(C(F)(F)F)CC2)C3)cnc1O` (stereo partly drawn) [I-224, (5-hydroxy-6-methylpyrazin-2-yl)((8R)-8-(5-(1-(3-(tetrahydro-2H-pyran-4-yl)-1H-pyrazol-1-yl)ethyl)-1,2,4-oxadiazol-3-yl)-2-(1-(trifluoromethyl)cyclopropanecarbonyl)-2,6-diazaspiro[3.4]octan-6-yl)methanone], the IC50 against CDK2/Cyclin E1 and with Kuramochi cells was above 10 µM in each case.

As to `CC(c1nc(C2CN(C(=O)c3cnc(O)c(C(F)(F)F)n3)CC23CN(C(=O)C2(C(F)(F)F)CC2)C3)no1)n1ccc(C2CCOCC2)n1` (stereo not drawn) [I-225, (5-Hydroxy-6-(trifluoromethyl)pyrazin-2-yl)(8-(5-(1-(3-(tetrahydro-2H-pyran-4-yl)-1H-pyrazol-1-yl)ethyl)-1,2,4-oxadiazol-3-yl)-2-(1-(trifluoromethyl)cyclopropane-1-carbonyl)-2,6-diazaspiro[3.4]octan-6-yl)methanone], the IC50 is 5 to 10 µM on CDK2/Cyclin E1 and above 10 µM with Kuramochi cells.

What is called IC50 is the concentration at which inhibition is half-maximal.
